Marks after values point to notes of the source that are not given here.
Key:
[1] = tested on: HCT-116 colon cancer xenografts; test: Tumor growth inhibition of HCT-116 colon cancer xenografts in tumor-bearing nude mice (tumor volume, TGI %, RTV, T/C %); assay type: in vivo, Balb/c Nude mice; conditions: G10-G16 groups, single IP 400 mg/kg
Procedure, shortened: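 Tumors in HCT-116-inoculated nude mice were sized three times weekly by diameter, with volume V=3/4π(D/2)^3. Significance set at P<0.05.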

[2] = Procedure, shortened: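 Test compounds formulated in ethanol:Cremophor EL:saline (5:5:90), vehicle alone as control, in HCT-116 subcutaneous xenografts in female Balb/c nudes (6/group, start 60–150 mm^3). Weight measured three times weekly, tumour weight at end; unpaired t-test on Mean±SEM data.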
ICR mice = test: in vivo; conditions: female ICR mice; single-dose ip
Procedure, shortened: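 MTD, the dose without mortality, body-weight loss over 10% from Day 0 or marked adverse signs, was found by stepwise up/down single intraperitoneal dosing of female SPF ICR mice. Vehicle: ethanol:Cremophor EL:saline 5:5:90. Animals weighed daily and clinically checked twice daily for up to 14 days.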

[3] = Day 1, G10-G16 groups, single IP 400 mg/kg, Mean±SEM
[4] = Day 2, G10-G16 groups, single IP 400 mg/kg, Mean±SEM
[5] = Day 4, G10-G16 groups, single IP 400 mg/kg, Mean±SEM
[6] = Day 7, G10-G16 groups, single IP 400 mg/kg, Mean±SEM
[7] = Day 9, G10-G16 groups, single IP 400 mg/kg, Mean±SEM
[8] = Day 11, G10-G16 groups, single IP 400 mg/kg, Mean±SEM
[9] = Day 14, G10-G16 groups, single IP 400 mg/kg, Mean±SEM
[10] = Day 16, G10-G16 groups, single IP 400 mg/kg, Mean±SEM
[11] = Day 18, G10-G16 groups, single IP 400 mg/kg, Mean±SEM
[12] = Day 21, G10-G16 groups, single IP 400 mg/kg, Mean±SEM
[13] = Day 23, G10-G16 groups, single IP 400 mg/kg, Mean±SEM
[14] = Day 25, G10-G16 groups, single IP 400 mg/kg, Mean±SEM
[15] = Day 28, G10-G16 groups, single IP 400 mg/kg, Mean±SEM
[16] = Day 30, G10-G16 groups, single IP 400 mg/kg, Mean±SEM

Structure (SMILES): O=C(COc1nc(Cl)c(Cl)cc1Cl)OCC1OC(n2cc(-c3cn(Cc4ccccc4)nn3)c(NC(=O)OCc3ccc([N+](=O)[O-])cc3)nc2=O)C(F)(F)C1O (centres unmarked) [Compound G13]
- Day 0 (RTV) ([1]; Day 0): 1.00
- Tumor volume, Day 0 ([1]; Day 0, Mean±SEM): 61.03 ± 13.76* mm^3
- Day 1 (TGI %) ([1]; Day 1): 77.92%
- Day 1 (RTV) ([1]; Day 1, Mean±SEM): 0.91 ± 0.12
- Tumor volume, Day 1 ([1]; Day 1, Mean±SEM): 48.89 ± 5.84** mm^3
- Day 2 (TGI %) ([1]; Day 2): 76.34%
- Day 2 (RTV) ([1]; Day 2, Mean±SEM): 0.95 ± 0.11
- Tumor volume, Day 2 ([1]; Day 2, Mean±SEM): 52.50 ± 8.43** mm^3
- Day 4 (TGI %) ([1]; Day 4): 73.88%
- Day 4 (RTV) ([1]; Day 4, Mean±SEM): 1.31 ± 0.07
- Tumor volume, Day 4 ([1]; Day 4, Mean±SEM): 77.58 ± 16.80** mm^3
- Day 7 (TGI %) ([1]; Day 7): 68.32%
- Day 7 (RTV) ([1]; Day 7, Mean±SEM): 2.39 ± 0.28
- Tumor volume, Day 7 ([1]; Day 7, Mean±SEM): 137.02 ± 30.02** mm^3
- Day 9 (TGI %) ([1]; Day 9): 55.73%
- Day 9 (RTV) ([1]; Day 9, Mean±SEM): 4.07 ± 0.37
- Tumor volume, Day 9 ([1]; Day 9, Mean±SEM): 261.35 ± 79.51* mm^3
- Day 11 (TGI %) ([1]; Day 11): 56.17%
- Day 11 (RTV) ([1]; Day 11, Mean±SEM): 6.38 ± 0.77
- Tumor volume, Day 11 ([1]; Day 11, Mean±SEM): 427.82 ± 136.59** mm^3
- Day 14 (TGI %) ([1]; Day 14): 46.84%
- Day 14 (RTV) ([1]; Day 14, Mean±SEM): 11.17 ± 1.45
- Tumor volume, Day 14 ([1]; Day 14, Mean±SEM): 765.65 ± 247.40* mm^3
- Day 16 (TGI %) ([1]; Day 16): 43.43%
- Day 16 (RTV) ([1]; Day 16, Mean±SEM): 15.55 ± 1.37
- Tumor volume, Day 16 ([1]; Day 16, Mean±SEM): 1024.48 ± 288.64* mm^3
- Day 18 (TGI %) ([1]; Day 18): 36.04%
- Day 18 (RTV) ([1]; Day 18, Mean±SEM): 19.86 ± 1.32
- Tumor volume, Day 18 ([1]; Day 18, Mean±SEM): 1278.22 ± 336.74 mm^3
- Day 21 (TGI %) ([1]; Day 21): 32.28%
- Day 21 (RTV) ([1]; Day 21, Mean±SEM): 26.98 ± 0.99
- Tumor volume, Day 21 ([1]; Day 21, Mean±SEM): 1655.72 ± 370.44 mm^3
- Day 23 (TGI %) ([1]; Day 23): 39.64%
- Day 23 (RTV) ([1]; Day 23, Mean±SEM): 27.42 ± 1.09
- Tumor volume, Day 23 ([1]; Day 23, Mean±SEM): 1425.63 ± 355.57 mm^3
- Day 25 (TGI %) ([1]; Day 25): 38.81%
- Day 25 (RTV) ([1]; Day 25, Mean±SEM): 30.60 ± 1.01
- Tumor volume, Day 25 ([1]; Day 25, Mean±SEM): 1580.18 ± 380.76 mm^3
- Day 28 (TGI %) ([1]; Day 28): 44.77%
- Day 28 (RTV) ([1]; Day 28, Mean±SEM): 35.76 ± 0.97
- Tumor volume, Day 28 ([1]; Day 28, Mean±SEM): 1485.25 ± 290.76 mm^3
- Day 30 (TGI %) ([1]; Day 30): 38.58%
- Day 30 (RTV) ([1]; Day 30, Mean±SEM): 42.06 ± 2.09
- Tumor volume, Day 30 ([1]; Day 30, Mean±SEM): 1723.43 ± 289.91 mm^3
- Weight change rate, Day 0 ([2]; Day 0, G10-G16 groups, single IP 400 mg/kg): 0.00%
- Weight of mice, Day 0 ([2]; Day 0, G10-G16 groups, single IP 400 mg/kg, Mean±SEM): 20.43 ± 0.27 g
- Weight change rate, Day 1 [2, 3]: −6.73 ± 0.73 %
- Weight of mice, Day 1 [2, 3]: 19.05 ± 0.17 g
- Weight change rate, Day 2 [2, 4]: −6.78 ± 0.95 %
- Weight of mice, Day 2 [2, 4]: 19.05 ± 0.35 g
- Weight change rate, Day 4 [2, 5]: −3.29 ± 1.05%
- Weight of mice, Day 4 [2, 5]: 19.77 ± 0.40 g
- Weight change rate, Day 7 [2, 6]: −2.67 ± 1.20%
- Weight of mice, Day 7 [2, 6]: 19.90 ± 0.48 g
- Weight change rate, Day 9 [2, 7]: 0.07 ± 2.05%
- Weight of mice, Day 9 [2, 7]: 20.47 ± 0.64 g
- Weight change rate, Day 11 [2, 8]: 0.61 ± 2.23%
- Weight of mice, Day 11 [2, 8]: 20.58 ± 0.69 g
- Weight change rate, Day 14 [2, 9]: 0.35 ± 2.75%
- Weight of mice, Day 14 [2, 9]: 20.53 ± 0.79 g
- Weight change rate, Day 16 [2, 10]: 3.83 ± 3.60%
- Weight of mice, Day 16 [2, 10]: 21.25 ± 0.94 g
- Weight change rate, Day 18 [2, 11]: 4.84 ± 3.19 %
- Weight of mice, Day 18 [2, 11]: 21.45 ± 0.85 g
- Weight change rate, Day 21 [2, 12]: 4.12 ± 3.07 %
- Weight of mice, Day 21 [2, 12]: 21.30 ± 0.81 g
- Day 22 Mortality ([2]; Day 22, single IP dose (mg/kg)): 0%
- Weight change rate, Day 23 [2, 13]: 5.17 ± 4.24%
- Weight of mice, Day 23 [2, 13]: 21.44 ± 1.05 g
- Weight change rate, Day 25 [2, 14]: 9.03 ± 4.91%
- Weight of mice, Day 25 [2, 14]: 22.24 ± 1.24 g
- Weight change rate, Day 28 [2, 15]: 12.25 ± 3.97%
- Weight of mice, Day 28 [2, 15]: 23.08 ± 0.97 g
- Weight change rate, Day 30 [2, 16]: 13.32 ± 4.25%
- Weight of mice, Day 30 [2, 16]: 23.30 ± 1.07 g
- clinical symptoms ([2]; after single IP dose, compared with model control group): no significant differences in clinical symptoms
- dose that could be tolerated (maximum tolerated dose, MTD) (ICR mice): 400 mg/kg

Reference: US10174067B2, “Type of cytidine derivative and application thereof” (priority 2014, dated 2019)
